Reference: US10172823B1, “Method for inhibiting cancer cell growth with a transplatin complex” (KING FAHD UNIVERSITY OF PETROLEUM AND MINERALS, priority 2017, dated 2019)
“Also recorded” adds a separate entry of the source.

Key:
[1] = test system: A549 (human lung cancer) cell line; assay: In vitro cytotoxic activity, MTT assay, A549 cell line; conditions: for IC50: read-out: IC50 Values against A549, MTT assay, A549 cells, 24 h incubation with compound, three independent experiments, ± standard deviation; for in vitro cytotoxicity compared with cisplatin and carboplatin, A549: A549 cell line, comparison of IC50 values in words
Method: (§1) The trans-[Pt(NH3)2(thione)2].2NO3 complexes were evaluated for in vitro cytotoxic activity against A549 (human lung cancer), MCF-7 (human breast cancer) and HTC15 (human colon cancer) cell lines. The cells were seeded at 4×10^3 cells/well in 100 μL DMEM containing 10% FBS in 96-wells tissue culture plate and incubated for 72 h at 37° C., 5% CO2 in air and 90% relative humidity in CO2 incubator. After incubation, 100 μL of each sample solution (50, 25, 12.5 and 6.25 μM), prepared in DMEM, were added to cells and the cultures were incubated for 24 h. The medium of wells was discarded and 100 μL DMEM containing MTT (3-(4,5-Dimethylthiazol-2-yl)-2,5-diphenyltetrazolium Bromide) (5 mg/mL) was added to the wells and incubated in CO2 incubator at 37° C. in dark for 4 h. After incubation, purple colored formazan (artificial chromogenic dye, product of the reduction of water insoluble tetrazolium salts e.g., MMT by dehydrogenases and reductases) in the cells is produced and appeared as dark crystals in the bottom of the wells. The resultant crystals were solublized by adding 100 μL of DMSO in each well. The solution was thoroughly mixed to dissolve the formazan crystals, producing a purple solution. The absorbance of the 96-wells plate was taken at 570 nm with Labsystems Multiskan EX-Enzyme-linked immunosorbent assay (EX-ELISA) reader against a reagent blank. The IC50 values were calculated from three independent experiments by generating an equation of logarithmic trend line of percentage cell viability against concentration of compounds in Microsoft excel.
(§2) The MTT assay was performed in three independent experiments, each in triplicate. The cancer cell lines used are A549 (human lung cancer), MCF-7 (human breast cancer) and HTC15 (human colon cancer) cell lines. Errors are standard deviations determined from at least three independent experiments.

[2] = test system: MCF-7 (human breast cancer) cell line; assay: In vitro cytotoxic activity, MTT assay, MCF-7 cell line; conditions: for IC50: read-out: IC50 Values against MCF7, MTT assay, MCF7 cells, 24 h incubation with compound, three independent experiments, ± standard deviation; for cytotoxicity compared with cisplatin and carboplatin, MCF7: MCF7 cell line, comparison of IC50 values in words
Method: as §1, with “After incubation, 100 μL of each sample solution (50, 25, 12.5 and 6.25 μM), prepared in DMEM, were added to cells and the cultures were incubated for 24 h.” left out
as §2

[3] = test system: HCT15 (human colon cancer) cell line; assay: In vitro cytotoxic activity, MTT assay, HCT15 cell line; format: cell-based; conditions: for IC50: MTT assay, HCT15 cells, 24 h incubation with compound, three independent experiments, ± standard deviation, read-out: IC50 Values against HCT15; for activity compared with cisplatin and carboplatin, HCT15: HCT15 cell line, comparison of IC50 values in words
Method: as §1, §2

SMILES	IC50 [1] [µM]	IC50 [2] [µM]	IC50 [3] [µM]	in vitro cytotoxicity compared with cisplatin and carboplatin, A549 [1]	activity compared with cisplatin and carboplatin, HCT15 [3]	cytotoxicity compared with cisplatin and carboplatin, MCF7 [2]
N.N.O=C([O-])C1(C(=O)[O-])CCC1.[Pt+2] [Carboplatin, carboplatin, reference compound]	70 ± 2	63 ± 2	53 ± 2			
N.N.[Cl][Pt][Cl] [Cisplatin, cisplatin, reference compound]	42 ± 2	23 ± 3	32 ± 2			
N.N.O=[N+]([O-])[O-].O=[N+]([O-])[O-].S=C1NCCN1.S=C1NCCN1.[Pt+2] [Complex 1, trans-[Pt(NH3)2(Imt)2]. 2NO3]	52 ± 2	80 ± 1	50 ± 1	slightly lower than cisplatin but still higher than carboplatin	almost the same cytotoxicity as carboplatin	
CN1CCNC1=S.CN1CCNC1=S.N.N.O=[N+]([O-])[O-].O=[N+]([O-])[O-].[Pt+2] [Complex 2, trans-[Pt(NH3)2(MeImt)2]. 2NO3]	40	70 ± 2	40	almost two-fold better than that of carboplatin; also recorded: better cytotoxicity against A549 cancer cell line than cisplatin	comparable to cisplatin	
CN1CCN(C)C1=S.CN1CCN(C)C1=S.N.N.O=[N+]([O-])[O-].O=[N+]([O-])[O-].[Pt+2] [Complex 3, trans-[Pt(NH3)2(Me2Imt)2]. 2NO3]	70 ± 1	92 ± 2	69 ± 2	the same cytotoxicity as carboplatin	less potent even than carboplatin	
CCN1CCN(CC)C1=S.CCN1CCN(CC)C1=S.N.N.O=[N+]([O-])[O-].O=[N+]([O-])[O-].[Pt+2] [Complex 4, trans-[Pt(NH3)2(Et2Imt)2]. 2NO3]	75 ± 1	89 ± 1	63 ± 1		less potent even than carboplatin	
CCCN1CCNC1=S.CCCN1CCNC1=S.N.N.O=[N+]([O-])[O-].O=[N+]([O-])[O-].[Pt+2] [Complex 5, trans-[Pt(NH3)2(PrImt)2]. 2NO3]	41	45 ± 1	36	almost two-fold better than that of carboplatin; also recorded: better cytotoxicity against A549 cancer cell line than cisplatin	comparable to cisplatin	between cisplatin and carboplatin
CC(C)N1CCNC1=S.CC(C)N1CCNC1=S.N.N.O=[N+]([O-])[O-].O=[N+]([O-])[O-].[Pt+2] [Complex 6, trans-[Pt(NH3)2(iPrImt)2]. 2NO3]	66 ± 1	86 ± 2	79 ± 1	slightly lower than cisplatin but still higher than carboplatin	less potent even than carboplatin	
CC(C)N1CCN(C(C)C)C1=S.CC(C)N1CCN(C(C)C)C1=S.N.N.O=[N+]([O-])[O-].O=[N+]([O-])[O-].[Pt+2] [Complex 7, trans-[Pt(NH3)2(Pr2Imt)2].2 NO3]	69 ± 1	87 ± 2	53 ± 1	the same cytotoxicity as carboplatin	almost the same cytotoxicity as carboplatin	
CCN1CCCNC1=S.CCN1CCCNC1=S.N.N.O=[N+]([O-])[O-].O=[N+]([O-])[O-].[Pt+2] [Complex 8, trans-[Pt(NH3)2(EtDiaz)2]. 2NO3]	48 ± 1	60 ± 2	43	slightly lower than cisplatin but still higher than carboplatin	comparable to cisplatin	between cisplatin and carboplatin
N.N.O=[N+]([O-])[O-].O=[N+]([O-])[O-].S=C1NCCCCN1.S=C1NCCCCN1.[Pt+2] [Complex 9, trans-[Pt(NH3)2(Diap)2]. 2NO3]	49 ± 1	69 ± 1	41	slightly lower than cisplatin but still higher than carboplatin	comparable to cisplatin	
